Experiments:
Assay type in all cases: cell-based
[1] = tested on: HA-tagged HBeAg (HBV) in DESHAe82 cells; experiment: AlphaLisa eAg: HA-HBeAg level in DESHAe82 cell culture (anti-HBV / anti-cccDNA activity); details: Hepatitis B virus, 216 h, read-out: AlphaLisa_eAg EC50
Procedure: Evaluation of anti-HBV activity of the compounds in in vitro cell culture studies was conducted using a modification of the assay system described in Cai et al., 2012, Antimicrobial Agents Chemotherapy 56(8):4277-88, and PCT/EP/2015/06838. In the DESHAe82 cell culture system, the HA epitope-tagged secreted HBV “e antigen” (HBeAg) and HBV precore RNA are produced only from the cccDNA circular template that is formed after HBV replication in absence of Tetracycline (Tet). The DESHAe82 cell line produces high levels of cccDNA synthesis and HA-HBeAg, and high specific readout signals with low noise.
Two assay systems, a chemiluminescence ELISA (CLIA) and a proximity […] assay (AlphaLISA) were developed and used for high-sensitivity detection of HA-tagged HBeAg. To test the compound, DESHAe82 were plated in 96 well tissue-culture treated microtiter plates in DMEM/F12 medium supplemented with 10% fetal bovine serum+1% penicillin-streptomycin with Tet, and incubated in a humidified incubator at 37° C. and 5% CO2 overnight. Next day, the cells were switched to fresh medium without Tet and treated with a test compound, over a range of concentrations (compound is solubilized in 100% DMSO before dilution in cell culture media, and the final DMSO concentration in the assay was 0.5%), and incubated for a duration of 9 days in a humidified incubator at 37° C. and 5% CO2. Untreated negative control samples (0.5% DMSO only) were included on each plate in multiple wells. On day 9, media was harvested and removed to a fresh plate, and level of HA-HBeAg was determined by CLIA or AlphaLISA. Anti-cccDNA activity of each test compound concentration was calculated as a percentage of HA-HBeAg signal detected in negative control samples versus compound-treated samples, and EC50 value for each compound was defined as the concentration that reduced the HA-HBeAg signal by 50%.

[2] = tested on: plus-strand of HBV rcDNA in HepDE19 cells; experiment: HepDE19 assay with bDNA quantitation of HBV rcDNA, plus-strand probe set; details: Hepatitis B virus, 168 h, 7 days, top concentration 25 μM, Quantigene 2.0 bDNA, plus-strand (PS) rcDNA, read-out: bDNA_RCDNA_PS EC50
Procedure: (§1) (b) HepDE19 Assay with bDNA Quantitation of HBV rcDNA
(§2) HepDE19 cell culture system is a HepG2 (human hepatocarcinoma) derived cell line that supports HBV DNA replication and cccDNA formation in a tetracycline (Tet)-regulated manner and produces HBV rcDNA and a detectable reporter molecule dependent on the production and maintenance of cccDNA (Guo, et al., 2007, J. Virol. 81:12472-12484). HepDE19 (50,000 cells/well) were plated in 96 well collagen-coated tissue-culture treated microtiter plates in DMEM/F12 medium supplemented with 10% fetal bovine serum, 1% penicillin-streptomycin and 1 μg/mL tetracycline and incubated in a humidified incubator at 37° C. and 5% CO2 overnight. Next day, the cells were switched to fresh medium without tetracycline and incubated for 4 hrs at 37° C. and 5% CO2. The cells were treated with fresh Tet-free medium with compounds at concentrations starting at 25 μM and a serial, ½ log, 8-point, titration series in duplicate. The final DMSO concentration in the assay was 0.5%. The plates were incubated for 7 days in a humidified incubator at 37° C. and 5% CO2. Following a 7 day-incubation, the level of rcDNA present in the inhibitor-treated wells was measured using a Quantigene 2.0 bDNA assay kit (Affymetrix, Santa Clara, Calif.) with HBV specific custom probe set and manufacturer's instructions. In order to differentiate HBV RNaseH inhibitors from other classes of HBV inhibitors (for example, nucleos(t)ide analogs or capsid inhibitors), the assay method was configured by incorporating the quantitation of both the minus-strand and the plus-strand of HBV rcDNA levels using specifically designed HBV probe sets. This is based on the observation that inhibition of RNaseH enzyme activity results in a block of the synthesis of the plus strand synthesis by the viral polymerase that follows the synthesis of the minus-strand of rcDNA (Tavis & Lomonosova, 2015, Antiviral Res. 118:132-138). […] In contrast, treatment with HBV inhibitors such as a nucleos(t)ide analogs or capsid inhibitors reduces the production of both strands of HBV rcDNA in cells. Concurrently, the effect of compounds on cell viability was assessed using replicate plates, plated at a density of 5,000 cells/well and incubated for 4 days, to determine the ATP content as a measure of cell viability using the cell-titer glo reagent (CTG; Promega Corporation, Madison, Wis.) as per manufacturer's instructions. The plates were read using a Victor luminescence plate reader (PerkinElmer Model 1420 Multilabel counter) and the relative luminescence units (RLU) data generated from each well was calculated as % inhibition of the untreated control wells and analyzed using XL-Fit module in Microsoft Excel to determine EC50 and EC90 (bDNA) and CC50 (CTG) values using a 4-parameter curve fitting algorithm.

[3] = tested on: HBV rcDNA in HepDE19 cells; experiment: HepDE19 assay with bDNA quantitation of HBV rcDNA; details: Hepatitis B virus, 168 h, 7 days, top concentration 25 μM, Quantigene 2.0 bDNA, read-out: bDNA_RCDNA EC50
Procedure: as §1, §2

SMILES	EC50 [1]	EC50 [2]	EC50 [3]
CC(=NOc1ccccc1)c1c(C)cc(=O)n(O)c1O (mixture of isomers) [Compound 2, (E/Z)-1,6-Dihydroxy-4-methyl-5-(1-(phenoxyimino)ethyl)pyridin-2(1H)-one]	1.28 µM	4.4 µM	17.1 µM
CC(=NOc1ccc(F)cc1)c1c(C)cc(=O)n(O)c1O (mixture of isomers) [Compound 3, (E/Z)-5-(1-((4-fluorophenoxy)imino)ethyl)-1,6-dihydroxy-4-methylpyridin-2(1H)-one]	1.18 µM	7.41 µM	22.2 µM
CC(=NOCc1ccccc1)c1c(C)cc(=O)n(O)c1O (mixture of isomers) [Compound 4, (E/Z)-5-(1-((Benzyloxy)imino)ethyl)-1,6-dihydroxy-4-methylpyridin-2(1H)-one]	2.24 µM	13.3 µM	> 25 µM
CC(=NOCc1ccc(C)cc1)c1c(C)cc(=O)n(O)c1O (mixture of isomers) [Compound 5, (E/Z)-1,6-Dihydroxy-4-methyl-5-(1-(((4-methylbenzyl)oxy)imino)ethyl)pyridin-2(1H)-one]	1.57 µM	3.01 µM	> 25 µM
CC(=NOCc1ccc(F)cc1)c1c(C)cc(=O)n(O)c1O (mixture of isomers) [Compound 6, (E/Z)-5-(1-(((4-fluorobenzyl)oxy)imino)ethyl)-1,6-dihydroxy-4-methylpyridin-2(1H)-one]	0.64 µM	5.97 µM	> 25 µM
COc1ccc(CON=C(C)c2c(C)cc(=O)n(O)c2O)cc1 (mixture of isomers) [Compound 7, (E/Z)-1,6-Dihydroxy-5-(1-(((4-methoxybenzyl)oxy)imino)ethyl)-4-methylpyridin-2(1H)-one]	0.35 µM	7.11 µM	> 25 µM
CC(=NOCc1ccccc1N)c1c(C)cc(=O)n(O)c1O (mixture of isomers) [Compound 8, (E/Z)-5-(1-(((2-Aminobenzyl)oxy)imino)ethyl)-1,6-dihydroxy-4-methylpyridin-2(1H)-one]	2.25 µM	11.1 µM	> 25 µM
CC(=NOCc1ccccc1F)c1c(C)cc(=O)n(O)c1O (mixture of isomers) [Compound 9, (E/Z)-5-(1-(((2-Fluorobenzyl)oxy)imino)ethyl)-1,6-dihydroxy-4-methylpyridin-2(1H)-one]		> 25 µM	> 25 µM
COc1ccccc1CON=C(C)c1c(C)cc(=O)n(O)c1O (mixture of isomers) [Compound 10, (E/Z)-1,6-Dihydroxy-5-(1-(((2-methoxybenzyl)oxy)imino)ethyl)-4-methylpyridin-2(1H)-one]	0.98 µM	6.53 µM	> 25 µM

Reference: patent US10550084B2, “Substituted 1-hydroxy-pyridin-2(1H)-ones, and methods of making and using same” (ARBUTUS BIOPHARMA CORPORATION, priority 2017, dated 2020)
